According to patent US8354451B2, “Treatment of microbial infections with compounds that inhibit 4-hydroxyphenylpyruvate dioxygenase” (The UWM Research Foundation, Inc., priority 2009, dated 2013):

Experiments:
Format in all cases: cell-based, Burkholderia cenocepacia
B. cenocepacia MH1J = assay: Pigment (pyomelanin) production, supernatant OD597; details: 24 h culture
Method: FIG. 1. NTBC decreases pigment production in B. cenocepacia. B. cenocepacia strains C5424 and MH1J were cultured in presence or absence of NTBC in flasks during 24 h. An aliquot of this culture was used to take the picture in A. To quantify pigment production, 1 ml of culture was centrifuged at 14,000 rpm by 5 min to pellet bacteria. The pigment in the supernatant was quantified at an OD597 nm. The graphic (B) was generated with the results of two independent experiments. Values represent the mean±SD of two independent experiments. ***, p<0.001, Mock (untreated) versus treated with 10 and 100 μM of NTBC.
To test the ability of NTBC 2-[2-nitro-4-(trifluoromethyl)benzoyl]-1,3-cyclohexanedione (NTBC) to decrease pigment production by Burkholderia cenocepacia strains, two strains with the ability to produce pigment were used: (i) the previously described B. cenocepacia C5424, and (ii) B. cenocepacia MH1J, strain with susceptibility to gentamicin.
Bacteria were grown in 10 ml of Luria-Bertani (LB) broth at 37° C. with shaking, using 250 mL-flasks. B. cenocepacia C5424 produced significant pigment at 24 h of culture and MH1J required 48 h to form high pigment production. To quantify the pigment produced by both strains a 1 mL culture was taken at 24 hrs of incubation and the bacteria were pelleted by centrifugation at 14,000 r.p.m. for 5 min. […]

[1] = system: B. cenocepacia C5424 and MH1J; assay: Growth rate, BIOSCREEN growth curve analysis; details: 10 μM and 100 μM NTBC, OD600 over 24 h
Method: FIG. 2. Effect of NTBC on growth and viability of B. cenocepacia. B. cenocepacia C5424 (upper graph) and MH1J (lower graph) were cultured in 300 ml of LB by triplicates. Cultures were started at an OD600 of 0.1 and OD600 readings were taken every 30 min over 24 h using the BIOSCREEN® system.
To assess growth rate, overnight cultures were inoculated into fresh medium with a starting optical density at 600 (OD600) of 0.1. Growth rates were determined in 100-well microtiter plates by use of a BIOSCREEN® C automated microbiology growth curve analysis system (MTX Lab Systems, Inc., Vienna, Va.) under high-amplitude shaking conditions.
(§1) B. cenocepacia C5424 and MH1J were cultured in the presence of 10 μM and 100 μM NTBC and assayed for growth rates using the BIOSCREEN® system (FIG. 2). Bacterial viability was examined under similar treatment conditions by fluorescence microscopy using the LIVE/DEAD® kit (Molecular Probes, Invitrogen).

[2] = system: B. cenocepacia C5424 and MH1J; assay: Bacterial viability, LIVE/DEAD fluorescence microscopy; details: 10 μM and 100 μM NTBC, 24 h culture
Method: Viability was tested by the LIVE/DEAD® method (Molecular probes, Invitrogen). 1 mL of bacterial culture was collected at 24 h, washed twice with phosphate buffered saline (PBS), and the pellet resuspended in 1 mL of Dubecco's modified Eagle's medium (DMEM) supplemented with 10% fetal bovine serum (FBS). Bacteria were incubated for 15 min at RT in the dark, 5 mL of the culture was used for fluorescence microscopy. Images were acquired using a QIMAGING® (Burnaby, British Columbia, Canada) cooled charge coupled-device camera on an Axioscope 2 (Carl Zeiss, Thornwood, N.Y.) microscope with an X100/1.3 numerical aperture Plan-Neofluor objective and a 50-W mercury arc lamp. Images were digitally processed using the Northern Eclipse version 6.0 imaging analysis software (Empix Imaging, Mississauga, Ontario, Canada).
as §1

## O=C1CCCC(=O)C1C(=O)c1ccc(C(F)(F)F)cc1[N+](=O)[O-] [NTBC, 2-(2-nitro-4-trifluoromethylbenzoyl)-1,3-cyclohexanedione]
B. cenocepacia MH1J; 10 μM NTBC
  pigment production relative to untreated MH1J: 31.53±3.08%
B. cenocepacia MH1J; 100 μM NTBC
  pigment production relative to untreated MH1J: 36.41±1.80%
[1]
  effect on growth rate: does not affect growth rate
[2]
  effect on viability: does not affect growth rate or viability
